One molecule from patent US5190929A, “Cyclophosphamide analogs useful as anti-tumor agents” (Research Corporation Technologies, Inc., priority 1988, dated 1993) can be followed below.

SMILES strings stand for the structures.

Data set [1] deals with P388 murine leukemia cells, cyclophosphamide-resistant (/CP). As to the kind of experiment: In vitro soft agar colony-forming cytotoxicity assay, cyclophosphamide-resistant P388 cells. Format: cell-based, mouse. Details: LC99: unit not given here. The text has this:
(§1) A soft agar colony-forming assay according to the procedure of Chu and Fischer, Biochem. Pharmacol., 17, 753-767 (1968) was used and modified where necessary. Cultured mouse L1210 and P388 sensitive cells were purchased from EG&G Mason Research Institute, Tumor Bank, Worchester, Mass. Cultured cyclophosphamide resistant L1210 and P388 cells were obtained from Dr. Robert Struck of Southern Research Institute, Birmingham, Ala. Typically, the desired cells (2-3×10^6 cells/ml) in exponential growth and suspended in 6.5 ml of Fischer's medium (Gibco Lab., Grand Island, N.Y.) were divided into six groups (1 control and 5 treated groups) containing an equal number of cells in 1 ml. These cells were then treated with varying doses of drug (solution of perhydrooxazine in media or 20% ethanol-water), diluted with media to give a total volume of 10 ml, and incubated for one hour at 37° C. The cells were washed three times with 3 ml of supplemented Fischer's medium (containing 10% horse serum) by centrifuge (800×g), removal of media by suction, and resuspension of the pellet in media (5 ml). A 1-ml portion was used to determine the cell count with a Coulter counter. From the remainder, a 5-ml suspension of cells was prepared at a density of 10^5 cells/ml, and between 10^2 and 10^5 cells were placed on soft agar and incubated at 37° C. Colonies were counted after 10 days. The log of the surviving fraction was plotted vs. drug concentration and from this plot the LC99 was obtained. (By definition, the LC99 value represents the concentration of drug necessary to effect a 99% cell kill.)

Data set [2] deals with L1210 murine leukemia cells, cyclophosphamide-sensitive (/0). Nature of the data set: In vitro soft agar colony-forming cytotoxicity assay, cyclophosphamide-sensitive L1210 cells. The following applies: L1210 /0 (sensitive); 1-hour exposure, 99% cell kill. Details: unit not given here. Type of data set: cell-based, mouse.
Description: as §1

Another data set relates to CP-resistant L1210 cells. Nature of the data set: In vivo antitumor activity, survival of mice bearing CP-resistant L1210 cells. Details: species or system mouse (male B6 D2 F1). Particulars: for Survival of L1210 bearing mice - % T/C × 100: CP-resistant L1210, i.p. The procedure: (§2) Typically 4 groups of 10 male B6 D2 F1 mice (Jackson Breeding Lab., Bar Harbor Me) were injected i.p. with 1×10^5 L1210 tumor cells. Twenty four hours after injection three groups were treated (i.p. injection) with varying doses of drug, and the fourth group received the vehicle alone. The mice were observed daily and death dates were recorded. The experiment was terminated on day 30 and median survival time (days) and % T/C (ratio of median survival time of treated group divided by the […] survival time of the control group) was calculated. The drug was delivered using either an isotonic saline solution or a carboxymethyl cellulose suspension depending on the solubility of the drug.

Data set [3] has as its system L1210 murine leukemia cells, cyclophosphamide-resistant (/CP). As to the kind of experiment: In vitro soft agar colony-forming cytotoxicity assay, cyclophosphamide-resistant L1210 cells. Format: cell-based, mouse. Details: LC99: unit not given here.
Description: as §1

For the next data set, the system named is L1210 tumor cells. As to the kind of experiment: In vivo antitumor activity, survival of L1210 bearing mice. More on the design: species or system mouse (male B6 D2 F1). Particulars: Mus musculus, L1210, ip, i.p., read-out: Survival of L1210 bearing mice - % T/C × 100. As to the method: as §2
Data set [4] relates to P388 murine leukemia cells, cyclophosphamide-sensitive (/0). As to the kind of experiment: In vitro soft agar colony-forming cytotoxicity assay, cyclophosphamide-sensitive P388 cells. Type of data set: cell-based, mouse. Details: unit not given here. Particulars: P388 /0 (sensitive); 1-hour exposure, 99% cell kill.
Description: as §1

Regarding `O=P1(N(CCCl)CCCl)NC(OO)CCO1` (centres unmarked) [Ref, reference compound], the LC99 in data set [1] (P388 /CP (cyclophosphamide-resistant), 1-hour exposure, 99% cell kill) was 60; in data set [2] it was 8; in data set [3] (L1210 /CP (cyclophosphamide-resistant), 1-hour exposure, 99% cell kill), 141; in data set [4] it was 6. Besides, the “RF, resistance factor = ratio of LC99 in resistant/sensitive cells” value is listed as 10 in data set [1] (P388, 60 min) and 17 in data set [3] (L1210, 60 min). Also, the “toxicity” value in the data set on CP-resistant L1210 cells (51 umol/kg dose, mice bearing cyclophosphamide resistant L1210) is recorded as “toxicity is apparent at the 51 umol/kg dose”. In addition, the “Survival of L1210 bearing mice - % T/C × 100” value in the data set with CP-resistant L1210 cells (17 umol/kg) was found to be 112%; with CP-resistant L1210 cells (34 umol/kg) it was 100%; in the data set with CP-resistant L1210 cells (51 umol/kg), 75%. Also, the “survival / lifespan of mice bearing cyclophosphamide resistant L1210 leukemia” value in the data set on CP-resistant L1210 cells (cyclophosphamide resistant L1210 leukemia) is “no significant increase in lifespan is observed”. Moreover, the response vs control in vivo at 17 µmol/kg in the data set with L1210 tumor cells (17 umol/kg) stood at 136%. In addition, the response vs control in vivo at 34 µmol/kg with L1210 tumor cells (34 umol/kg) worked out at 194%. Further, the response vs control in vivo at 51 µmol/kg in the data set with L1210 tumor cells (51 umol/kg) amounted to 50%.
